The text below walks through data of US20080014186A1, “Hla-A24 or Hla-A2 Binding Peptides of Parathyroid Hormone-Related Protein” (GREEN PEPTIDE CO., LTD., priority 2004, published 2008).

The subject of one data set is PC93-A2 cells. Put plainly: Cytotoxicity of peptide-stimulated PBMCs (HLA-A2). The following applies: PC93-A2 vs PC93 and PHA-stimulated T cell blasts; FIG. 4B, 5. The class given is cell-based, human. How it is done:
In a similar way to Example 2, it was examined whether or not PTHrP 42-51 and PTHrP 59-67 peptides could induce cancer-reactive CTLs in PBMCs derived from HLA-A2^+ healthy donors and prostate cancer patients. An HLA-A2-expressing PC93 prostate cancer cell line was prepared by constitutively expressing an HLA-A*0201 molecule on a PC93 cell which was a HLA-A2-prostate cancer cell line (established by Dr. K. Ohnishi, Department of Urology, Kyoto University) (PC93-A2 cell). The expression of the HLA-A*0201 molecule on the cell line was previously reported. In addition, the PC93 cells produced PTHrP at a level of 2.2 pmol/l (1×10^6 cell/ml for 24 hr).
Cytotoxicities of these peptide-stimulated PBMCs against PC93 cells, PC93-A2 cells, and PHA-stimulated T cell blasts are shown in FIG. 4B.

The next data set deals with LNCaP-A24 cells. Put plainly: 6-hr 51Cr-release cytotoxicity assay of peptide-stimulated PBMCs (HLA-A24). The following applies: LNCaP-A24 vs LNCaP and HLA-A24^+ PHA-blastoid T cells; FIG. 2A. The class given is cell-based, human. How it is done: In order to investigate the HLA-A24-restricted and prostate cancer-reactive cytotoxicity of peptide-stimulated PBMCs, an HLA-A24-expressing LNCaP cell line, which was designated as LNCaP-A24, was prepared. The LNCaP is an HLA-A24 negative prostate cancer cell line. To establish LNCaP cells stably expressing HLA-A24 molecules (designated as LNCaP-A24), a pcDNA3.1/Hygro vector (Invitrogen, Calif.), which was inserted with the HLA-A*2402 gene, was electroporated into the LNCaP cell line (ATCC number: CRL-1740), and selection was carried out with hygromycin B (Invitrogen) at a dose of 170 μg/ml. All cell lines were maintained in RPMI-1640 medium (Gibco BRL, Grand Island, N.Y., USA) supplemented with 10% FCS. LNCaP has previously been reported to produce PTHrP (17). A parental LNCaP cell line was negative for the cell surface expression of HLA-A24 molecules, whereas the LNCaP-A24 cell line expressed HLA-A24 molecules on their cell surface. Flow cytometric analysis was performed on LNCaP and LNCaP-A24 cells. These cells were stained with anti-HLA-A24 mAb, followed by FITC-conjugated anti-mouse IgG mAb. The dotted lines represent staining without the first rnAb. […]

Ends that are not written are not given here.

Consider FLHHLIAEI [PTHrP 59-67], for which the “Induction of prostate cancer-reactive CTLs / cytotoxicity of peptide-stimulated PBMCs” value in the data set on PC93-A2 cells was “have the potential to induce prostate cancer-reactive CTLs”. As to QLLHDKGKSI, the “Induction of prostate cancer-reactive CTLs / cytotoxicity of peptide-stimulated PBMCs” value in the data set with PC93-A2 cells is given as “have the potential to induce prostate cancer-reactive CTLs”. RAVSEHQLL [PTHrP 36-44]: the “Induction of prostate cancer-reactive CTLs / cytotoxicity of peptide-stimulated PBMCs” value with LNCaP-A24 cells is recorded as “have the potential to induce prostate cancer-reactive CTLs”.

For the sequence RYLTQETNKV [PTHrP 102-111], the “Induction of prostate cancer-reactive CTLs / cytotoxicity of peptide-stimulated PBMCs” value in the data set on LNCaP-A24 cells was “have the potential to induce prostate cancer-reactive CTLs”.
